The values below come from patent publication US11572590B2, “Methods for evaluating tumor cell spheroids using 3D microfluidic cell culture device” (Dana-Farber Cancer Institute, Inc., priority 2017, dated 2023).

Holding throughout (experiment): SelectScreen Kinase Profiling, single point inhibition and IC50 for off-target kinases
Holding throughout (type): biochemical

Assay [1] deals with off-target kinases (Homo sapiens, UniProt P10721, N822K). The settings on record: KIT N822K, LanthaScreen Binding. For orientation: Time-resolved FRET reads energy transfer from a long-lived donor to a nearby acceptor.
off-target kinases (Homo sapiens, UniProt P10721, N822K), sequence (P10721 26-976 N822K): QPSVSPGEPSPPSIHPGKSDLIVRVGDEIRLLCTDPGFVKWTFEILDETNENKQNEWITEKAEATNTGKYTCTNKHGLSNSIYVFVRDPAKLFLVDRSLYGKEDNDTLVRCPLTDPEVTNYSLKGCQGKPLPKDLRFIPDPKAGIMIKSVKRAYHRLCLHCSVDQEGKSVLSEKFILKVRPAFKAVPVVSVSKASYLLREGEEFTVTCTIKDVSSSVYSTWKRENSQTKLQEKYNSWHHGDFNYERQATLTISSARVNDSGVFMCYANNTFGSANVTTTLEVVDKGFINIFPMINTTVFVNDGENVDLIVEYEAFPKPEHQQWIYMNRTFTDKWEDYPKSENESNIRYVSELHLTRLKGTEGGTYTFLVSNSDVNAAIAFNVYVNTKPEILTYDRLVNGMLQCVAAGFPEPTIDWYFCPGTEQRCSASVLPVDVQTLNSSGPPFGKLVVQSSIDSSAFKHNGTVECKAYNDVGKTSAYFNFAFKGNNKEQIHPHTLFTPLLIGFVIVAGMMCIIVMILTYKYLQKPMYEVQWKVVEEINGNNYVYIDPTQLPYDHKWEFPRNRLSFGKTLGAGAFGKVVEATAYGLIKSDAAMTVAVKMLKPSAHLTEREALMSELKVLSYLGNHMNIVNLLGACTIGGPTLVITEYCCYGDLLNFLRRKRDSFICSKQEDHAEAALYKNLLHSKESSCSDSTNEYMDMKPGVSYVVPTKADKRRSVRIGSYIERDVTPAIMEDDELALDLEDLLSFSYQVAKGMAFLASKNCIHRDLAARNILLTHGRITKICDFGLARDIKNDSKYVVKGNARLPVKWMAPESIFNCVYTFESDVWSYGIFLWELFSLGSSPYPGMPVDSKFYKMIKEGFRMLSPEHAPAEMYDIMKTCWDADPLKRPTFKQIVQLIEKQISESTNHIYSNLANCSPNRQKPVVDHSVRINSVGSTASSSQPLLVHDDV
Assay [2] has as its target off-target kinases (Homo sapiens, UniProt P14616). To be noted: INSRR (IRR), ZLYTE, ATP Km app.
The target in assay [3] is off-target kinases (Homo sapiens, UniProt P22607, G697C). The settings on record: FGFR3 G697C (mutant), LanthaScreen Binding.
off-target kinases (Homo sapiens, UniProt P22607, G697C), sequence (P22607 23-806 G697C): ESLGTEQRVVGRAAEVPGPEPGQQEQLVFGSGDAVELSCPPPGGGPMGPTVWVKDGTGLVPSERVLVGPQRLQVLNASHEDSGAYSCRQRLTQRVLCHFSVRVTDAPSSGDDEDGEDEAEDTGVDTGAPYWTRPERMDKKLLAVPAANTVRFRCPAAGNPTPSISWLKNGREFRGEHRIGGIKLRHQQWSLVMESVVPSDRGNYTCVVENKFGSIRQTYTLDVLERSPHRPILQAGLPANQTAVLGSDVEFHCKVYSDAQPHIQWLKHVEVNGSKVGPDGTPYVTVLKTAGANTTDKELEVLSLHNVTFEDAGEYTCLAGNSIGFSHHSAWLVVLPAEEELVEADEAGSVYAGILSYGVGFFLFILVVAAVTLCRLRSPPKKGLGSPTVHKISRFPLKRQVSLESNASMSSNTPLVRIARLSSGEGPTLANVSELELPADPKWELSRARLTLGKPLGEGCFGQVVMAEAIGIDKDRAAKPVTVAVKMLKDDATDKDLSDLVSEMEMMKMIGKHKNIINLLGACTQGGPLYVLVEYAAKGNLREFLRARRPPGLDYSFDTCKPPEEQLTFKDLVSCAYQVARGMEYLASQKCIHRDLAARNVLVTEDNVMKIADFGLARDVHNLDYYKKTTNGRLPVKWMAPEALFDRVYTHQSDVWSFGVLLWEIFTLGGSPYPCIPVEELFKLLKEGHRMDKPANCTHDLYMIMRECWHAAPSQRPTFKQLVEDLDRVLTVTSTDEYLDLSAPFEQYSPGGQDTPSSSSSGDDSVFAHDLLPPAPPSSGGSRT
For assay [4], the target named is T1, off-target kinases (Homo sapiens, UniProt Q16832, N456S).
T1 sequence (Q16832 22-855 N456S): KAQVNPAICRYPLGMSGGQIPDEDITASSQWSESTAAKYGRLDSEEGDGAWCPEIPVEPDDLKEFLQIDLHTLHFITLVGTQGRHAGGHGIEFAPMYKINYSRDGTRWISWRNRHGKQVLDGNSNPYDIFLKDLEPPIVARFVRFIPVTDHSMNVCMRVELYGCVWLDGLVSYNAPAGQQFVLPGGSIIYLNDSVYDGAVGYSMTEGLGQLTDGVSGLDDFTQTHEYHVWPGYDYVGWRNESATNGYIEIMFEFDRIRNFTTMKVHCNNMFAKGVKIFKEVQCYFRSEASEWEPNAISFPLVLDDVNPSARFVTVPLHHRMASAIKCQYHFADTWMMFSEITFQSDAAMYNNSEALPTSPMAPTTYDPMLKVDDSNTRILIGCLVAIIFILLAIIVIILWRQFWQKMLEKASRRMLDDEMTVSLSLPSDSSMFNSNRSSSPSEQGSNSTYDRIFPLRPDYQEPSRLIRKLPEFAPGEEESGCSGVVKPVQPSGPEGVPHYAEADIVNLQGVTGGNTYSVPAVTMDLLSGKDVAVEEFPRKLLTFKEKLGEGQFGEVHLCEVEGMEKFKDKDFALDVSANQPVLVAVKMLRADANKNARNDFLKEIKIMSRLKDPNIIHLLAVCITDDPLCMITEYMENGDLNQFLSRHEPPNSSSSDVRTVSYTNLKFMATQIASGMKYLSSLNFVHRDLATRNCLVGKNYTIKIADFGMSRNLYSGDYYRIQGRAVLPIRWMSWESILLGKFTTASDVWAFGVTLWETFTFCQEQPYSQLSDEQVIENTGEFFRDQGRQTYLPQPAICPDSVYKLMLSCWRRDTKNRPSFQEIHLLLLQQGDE
To be noted: DDR2 N456S, mutant y, LanthaScreen Binding.

In assay [5] the target is off-target kinases (Homo sapiens, UniProt Q8IU85). The settings on record: CAMK1D (CaMKI delta), ZLYTE, ATP Km app.
off-target kinases (Homo sapiens, UniProt Q8IU85), sequence (Q8IU85 whole entry): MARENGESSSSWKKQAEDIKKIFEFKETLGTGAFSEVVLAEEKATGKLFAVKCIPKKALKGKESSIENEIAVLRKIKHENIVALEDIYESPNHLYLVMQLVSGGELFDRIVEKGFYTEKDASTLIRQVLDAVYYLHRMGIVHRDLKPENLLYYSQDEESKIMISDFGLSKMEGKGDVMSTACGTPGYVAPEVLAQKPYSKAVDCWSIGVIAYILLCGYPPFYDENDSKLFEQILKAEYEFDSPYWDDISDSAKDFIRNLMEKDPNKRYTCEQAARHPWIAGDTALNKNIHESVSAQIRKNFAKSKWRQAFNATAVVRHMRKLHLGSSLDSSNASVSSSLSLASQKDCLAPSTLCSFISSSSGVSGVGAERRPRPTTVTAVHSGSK
Assay [6] deals with T2, off-target kinases (Homo sapiens, UniProt Q9BXA7).
T2 sequence (Q9BXA7 1-367): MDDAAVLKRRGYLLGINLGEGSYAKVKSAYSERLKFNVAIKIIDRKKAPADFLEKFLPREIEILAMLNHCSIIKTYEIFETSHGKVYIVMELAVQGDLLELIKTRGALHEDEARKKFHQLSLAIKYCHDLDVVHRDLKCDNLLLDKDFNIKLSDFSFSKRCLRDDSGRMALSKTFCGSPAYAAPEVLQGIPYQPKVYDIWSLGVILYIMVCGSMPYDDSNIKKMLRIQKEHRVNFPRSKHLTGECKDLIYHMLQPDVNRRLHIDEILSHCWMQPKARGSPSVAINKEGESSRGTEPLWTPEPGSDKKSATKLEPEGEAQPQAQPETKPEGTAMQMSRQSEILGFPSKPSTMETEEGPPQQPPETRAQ
The settings on record: STK22D (TSSK1), ATP Km app, ZLYTE.

The target in assay [7] is off-target kinases (Homo sapiens, UniProt Q9H1R3). The settings on record: MYLK2 (skMLCK), ATP Km app, ZLYTE.
off-target kinases (Homo sapiens, UniProt Q9H1R3), sequence (Q9H1R3 whole entry): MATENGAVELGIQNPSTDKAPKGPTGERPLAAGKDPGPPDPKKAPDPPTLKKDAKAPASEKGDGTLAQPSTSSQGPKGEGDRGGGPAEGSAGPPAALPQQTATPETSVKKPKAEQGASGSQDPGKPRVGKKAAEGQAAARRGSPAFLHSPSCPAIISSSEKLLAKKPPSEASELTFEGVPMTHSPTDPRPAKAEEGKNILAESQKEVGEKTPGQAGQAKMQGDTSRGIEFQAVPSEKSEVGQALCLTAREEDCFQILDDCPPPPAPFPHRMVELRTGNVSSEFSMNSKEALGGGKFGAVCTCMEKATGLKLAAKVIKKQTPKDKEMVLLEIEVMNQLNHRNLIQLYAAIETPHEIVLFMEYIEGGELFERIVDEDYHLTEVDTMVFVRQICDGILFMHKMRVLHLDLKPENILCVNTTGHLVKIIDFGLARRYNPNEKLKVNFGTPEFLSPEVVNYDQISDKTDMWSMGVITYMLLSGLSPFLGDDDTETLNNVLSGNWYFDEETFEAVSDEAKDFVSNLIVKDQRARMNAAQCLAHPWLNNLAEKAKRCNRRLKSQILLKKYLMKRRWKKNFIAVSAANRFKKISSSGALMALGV

Molecules are shown by their SMILES. Where two headings read alike, the source gives them in different places.

off-target kinases (Homo sapiens, UniProt P14616), sequence (P14616 27-1297): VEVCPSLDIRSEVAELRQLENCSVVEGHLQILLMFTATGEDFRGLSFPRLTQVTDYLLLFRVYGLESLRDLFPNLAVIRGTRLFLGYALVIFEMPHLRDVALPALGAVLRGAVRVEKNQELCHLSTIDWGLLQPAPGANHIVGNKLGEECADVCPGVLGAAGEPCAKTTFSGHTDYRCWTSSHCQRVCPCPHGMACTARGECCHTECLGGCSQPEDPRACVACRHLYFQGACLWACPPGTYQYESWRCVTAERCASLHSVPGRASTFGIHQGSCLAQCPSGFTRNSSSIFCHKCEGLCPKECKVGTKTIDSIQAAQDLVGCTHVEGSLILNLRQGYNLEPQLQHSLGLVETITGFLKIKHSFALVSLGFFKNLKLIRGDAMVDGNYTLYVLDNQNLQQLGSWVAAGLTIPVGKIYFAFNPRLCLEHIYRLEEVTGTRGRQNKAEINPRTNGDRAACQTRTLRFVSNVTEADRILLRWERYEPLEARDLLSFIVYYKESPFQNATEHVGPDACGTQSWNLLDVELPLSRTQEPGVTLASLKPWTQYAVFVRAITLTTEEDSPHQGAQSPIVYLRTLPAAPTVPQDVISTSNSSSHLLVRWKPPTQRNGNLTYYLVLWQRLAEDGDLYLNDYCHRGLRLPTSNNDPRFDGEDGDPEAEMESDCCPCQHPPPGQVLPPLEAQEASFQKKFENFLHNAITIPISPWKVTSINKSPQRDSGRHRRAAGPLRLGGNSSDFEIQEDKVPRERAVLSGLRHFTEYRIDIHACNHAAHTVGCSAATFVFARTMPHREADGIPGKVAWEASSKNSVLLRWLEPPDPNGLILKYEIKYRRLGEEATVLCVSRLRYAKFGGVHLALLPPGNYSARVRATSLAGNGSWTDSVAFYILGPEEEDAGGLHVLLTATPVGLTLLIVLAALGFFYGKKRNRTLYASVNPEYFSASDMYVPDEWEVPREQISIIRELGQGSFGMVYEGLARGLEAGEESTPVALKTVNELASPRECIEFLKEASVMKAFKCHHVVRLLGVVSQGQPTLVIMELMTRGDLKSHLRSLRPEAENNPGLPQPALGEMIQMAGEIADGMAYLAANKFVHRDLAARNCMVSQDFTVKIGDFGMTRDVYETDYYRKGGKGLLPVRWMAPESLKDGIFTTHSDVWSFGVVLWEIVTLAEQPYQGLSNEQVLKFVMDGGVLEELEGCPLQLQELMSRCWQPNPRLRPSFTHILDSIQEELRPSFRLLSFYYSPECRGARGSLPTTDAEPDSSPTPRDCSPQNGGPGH

For the compound `N#Cc1cc(-c2ncnc(Nc3ccc(N4CCN(C5COC5)CC4)cc3)n2)ccc1OC1CCOCC1` [Compound 1, 5-(4-((4-(4-(oxetan-3-yl)piperazin-1-yl)phenyl)amino)-1,3,5-triazin-2-yl)-2-((tetrahydro-2H-pyran-4-yl)oxy)benzonitrile], the inhibition on off-target kinases [1] (read-out: % Inhibition 1) is 66%; at off-target kinases [1] (read-out: % Inhibition 2), 67%; at off-target kinases [1] (read-out: % Inhibition Avg) it was 66%; on off-target kinases [2] (read-out: % Inhibition 1), 5%; at off-target kinases [2] (read-out: % Inhibition 2), 4%; at off-target kinases [2] (read-out: % Inhibition Avg) it was 4%. Also, the inhibition came to 13% on off-target kinases [3] (read-out: % Inhibition 1); 4% on off-target kinases [3] (read-out: % Inhibition 2); 8% at off-target kinases [3] (read-out: % Inhibition Avg); 33% at off-target kinases [4] (read-out: % Inhibition 1); 42% on off-target kinases [4] (read-out: % Inhibition 2); 37% at off-target kinases [4] (read-out: % Inhibition Avg). Further, the inhibition at off-target kinases [5] (read-out: % Inhibition 1) turned out to be 12%; at off-target kinases [5] (read-out: % Inhibition 2) it was 13%; at off-target kinases [5] (read-out: % Inhibition Avg) it was 12%; on off-target kinases [6] (read-out: % Inhibition 1) it was 99%; on off-target kinases [6] (read-out: % Inhibition 2), 95%; on off-target kinases [6] (read-out: % Inhibition Avg), 97%. Also, the values for the inhibition on off-target kinases [7] (read-out: % Inhibition 1), on off-target kinases [7] (read-out: % Inhibition 2) and on off-target kinases [7] (read-out: % Inhibition Avg) were 65%, 60% and 63%, respectively.

What is called inhibition is the percentage by which the read-out fell short of the control.
